Data: the NIST ThermoML archive (doi:10.1016/j.jct.2019.05.013)

Key:
[1] = refractive index (Na D-line) (dimensionless); details: 293.15 K; 101.33 kPa; Liquid; Standard Abbe refractometry
[2] = wn = mass fraction of the nth substance listed; details: 100 kPa, Liquid; for viscosity: Falling or rolling sphere viscometry; for mass density: Vibrating tube method

CO [methanol]
Details | refractive index
[1] | 1.32858

O [water] + CO
[2], w2 = 0
Details | mass density [kg/m3] | viscosity [mPa·s]
275.15 K | 999.94 | 1.661
293.15 K | – | 0.998

CO [methanol] + O
[2]
Details | mass density, w1 = 0.1 [kg/m3] | mass density, w1 = 0.2 [kg/m3] | mass density, w1 = 0.3001 [kg/m3] | mass density, w1 = 0.4 [kg/m3] | mass density, w1 = 0.4999 [kg/m3] | viscosity, w1 = 0.1 [mPa·s] | viscosity, w1 = 0.2 [mPa·s] | viscosity, w1 = 0.3001 [mPa·s] | viscosity, w1 = 0.4 [mPa·s] | viscosity, w1 = 0.4999 [mPa·s]
273.15 K | 984.19 | 972.46 | 960.61 | 945.89 | 928.63 | 2.575 | 3.315 | 3.636 | 3.623 | 3.312
293.15 K | 981.29 | 966.62 | 951.49 | 934.6 | 915.53 | 1.316 | 1.623 | 1.782 | 1.824 | 1.747
